Where two headings read alike, the source gives them in different places.
Key:
[1] = target: DPP1 in HL-60 cells (Homo sapiens, UniProt P53634); experiment: DPP1 Cell IC50 assay; format: cell-based; parameters: host or cells: HL-60 cells; conditions: 60 min pre-incubation, H-Gly-Phe-AFC substrate, average of n runs
Experimental: Example 99. DPP1 Cell IC50 assay
HL-60 cells (ATCC; Manassas, VA) were maintained in RPMI-1640 supplemented with 20% heat-inactivated FBS and 1× Antibiotic Antimycotic (Cytiva; Marlborough, MA). Media was changed every three to four days and cells were not allowed to exceed 1×10^6 cells per mL. Prior to assay, cells were collected by centrifugation at 500 rcf for 3 minutes, resuspended in PBS and counted. Cells were diluted in PBS to a concentration of 5×10^5 live cells per mL and transferred to black 96-well plates for assay, 60 μL per well. Test articles were diluted in PBS plus 0.5% DMSO, and 20 μL was added to each assay well. Compound was allowed to pre-incubate with cells with gentle shaking at 100 rpm for 60 minutes at 37° C. in a cell culture incubator maintained at 5% CO2, after which 20 μL of 500 μM H-Gly-Phe-AFC substrate (MP Biomedicals; Solon, OH) was added to each well. Plates were returned to the incubator with shaking at 100 rpm for 30 minutes, after which fluorescence was measured at Excitation/Emission 400/505 nm. % Inhibition was calculated from RFU values compared to control cell wells that received only PBS plus 0.5% DMSO. IC50 values for each compound were calculated via the XLFit (IDBS Version 5.3.1.3) Add-On to Microsoft Excel using the four parameter fit equation y=(A+((B−A)/(1+((C/x)^D)))), which appears as equation number 205 (4 Parameter Logistic Model or Sigmoidal Dose-Response Model) in XLFit. IC50 was defined as the compound concentration at which 50% of enzyme activity was inhibited when compared to the no-compound control.

[2] = target: human DPP1 enzyme (Homo sapiens, UniProt P53634); experiment: Human DPP1 Enzyme IC50 Assay; format: biochemical; parameters: was first proteolytically processed into its mature form using recombinant human cathepsin L; purchased R&D Systems
Experimental: Example 97. Human DPP1 Enzyme IC50 Assay
Recombinant human DPP1 enzyme (R&D Systems; Minneapolis, MN) was first proteolytically processed into its mature form using recombinant human cathepsin L (R&D Systems) in a buffer consisting of 20 mM citric acid pH 4.5, 150 mM NaCl, 1 mM EDTA and 10 mM DTT. Test articles were applied to activated human DPP1 enzyme in Assay Buffer (25 mM MES pH 6.0, 50 mM NaCl, 5 mM DTT) in a total reaction volume of 125 μL. 25 μL of compound in Assay Buffer plus 5% DMSO was first added to 50 μL of activated human DPP1 enzyme at a concentration of 1 ng/μL and allowed to pre-incubate for 10 minutes at 37° C. after which 50 μL of 1000 μM H-Gly-Arg-AMC substrate (Bachem; St. Torrance, CA) was added, giving final substrate concentration of 400 μM and a final DMSO concentration of 1%. Substrate cleavage was measured for 90 minutes at 37° C., with fluorescence at Excitation/Emission 350/450 nm measured every 5 minutes. DPP1 concentration was interpolated based on its activity relative to a standard curve of activated human recombinant DPP1 enzyme. IC50 values for each compound were calculated via the XLFit (IDBS Version 5.3.1.3) Add-On to Microsoft Excel using the four parameter fit equation y={A+[(B−A)]/[1+((C/x)^D)]}, which appears as equation number 205 (4 Parameter Logistic Model or Sigmoidal Dose-Response Model) in XLFit. Default constraints were used for each Parameter. IC50 was defined as the compound concentration at which 50% of enzyme activity was inhibited when compared to the no-compound control.

[3] = read-out: Avg. IC50 (DPP1 Cell IC50 value ranges)
[4] = activated recombinant human DPP1, 400 μM H-Gly-Arg-AMC, 10 minutes pre-incubation at 37° C., pH 6.0, average of n runs, read-out: Avg. IC50 (Human DPP1 enzyme IC50 value ranges)

Chain of human DPP1 enzyme (P53634 25-134 limits assumed): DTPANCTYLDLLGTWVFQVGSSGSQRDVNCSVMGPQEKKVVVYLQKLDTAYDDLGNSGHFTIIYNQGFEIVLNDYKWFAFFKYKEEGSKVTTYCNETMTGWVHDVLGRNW
Chain of human DPP1 enzyme (P53634 231-394 limits assumed): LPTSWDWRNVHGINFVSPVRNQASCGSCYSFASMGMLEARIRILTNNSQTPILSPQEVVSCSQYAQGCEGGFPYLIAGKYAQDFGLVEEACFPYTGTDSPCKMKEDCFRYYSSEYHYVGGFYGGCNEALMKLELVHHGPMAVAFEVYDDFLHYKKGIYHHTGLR
Chain of human DPP1 enzyme (P53634 395-463 limits assumed): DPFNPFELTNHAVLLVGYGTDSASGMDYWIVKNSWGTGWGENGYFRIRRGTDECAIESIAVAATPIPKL
Chain of DPP1 in HL-60 cells (P53634 25-463): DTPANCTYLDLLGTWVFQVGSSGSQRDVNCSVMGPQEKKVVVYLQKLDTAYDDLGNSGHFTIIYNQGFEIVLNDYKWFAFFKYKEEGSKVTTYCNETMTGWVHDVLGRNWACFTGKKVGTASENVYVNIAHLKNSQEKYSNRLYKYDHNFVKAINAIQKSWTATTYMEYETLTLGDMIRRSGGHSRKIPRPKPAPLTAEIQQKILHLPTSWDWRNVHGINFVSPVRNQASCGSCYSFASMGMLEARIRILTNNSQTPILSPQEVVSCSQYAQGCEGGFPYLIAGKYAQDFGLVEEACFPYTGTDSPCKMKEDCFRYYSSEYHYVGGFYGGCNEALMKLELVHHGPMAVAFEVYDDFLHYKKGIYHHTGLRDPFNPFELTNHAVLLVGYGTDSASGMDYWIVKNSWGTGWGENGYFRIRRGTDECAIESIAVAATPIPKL

SMILES	IC50 [1, 3]	IC50 [2, 4]	IC50 ([1]; Avg. IC50 (DPP1 Cell IC50 value ranges))	IC50 [2]
CO[C@@H]1CCNC[C@@H](C(=O)NC(C#N)Cc2cc3c(cc2F)-c2ccc(C#N)cc2CO3)OC1 (mixture of isomers) [Compound B11, (2S,7R)—N-(1-cyano-2-{8-cyano-2-fluoro-6H-benzo[c]chromen-3-yl}ethyl)-7-methoxy-1,4-oxazocane-2-carboxamide]	1 to 2.5 nM	< 5 nM	–	–
Cn1c(=O)oc2ccc3c(c21)COc1cc(C[C@@H](C#N)NC(=O)[C@@H]2CNCCCO2)c(F)cc1-3 [Compound C2-A]	1 to 2.5 nM	> 15 nM	–	–
CO[C@H]1CCO[C@H](C(=O)N[C@H](C#N)Cc2cc3cc(-c4cc5c(C)nc(C)cn5c4)ccc3s2)CNC1 (single isomer, unassigned) [Compound A45]	> 2.5 nM	> 15 nM	–	–
CCCCOCCn1c(=O)oc2ccc(-c3ccc(C[C@@H](C#N)NC(=O)[C@@H]4CNC(C)C(OC)CO4)c(F)c3)cc21 (stereo partly drawn) [Compound E1, (2S)—N-[(1S)-2-{4-[3-(2-butoxyethyl)-2-oxo-1,3-benzoxazol-5-yl]-2-fluorophenyl}-1-cyanoethyl]-6-methoxy-5-methyl-1,4-oxazepane-2-carboxamide]	1 to 2.5 nM	< 5 nM	–	–
Cc1cn2cc(-c3cc4sc(C[C@@H](C#N)NC(=O)[C@@H]5CNCCCCO5)cc4s3)cc2c(C)n1 (single isomer, unassigned) [Compound A30]	> 2.5 nM	> 15 nM	–	–
CO[C@@H]1CCNC[C@@H](C(=O)N[C@H](C#N)Cc2ncc(-c3ccc4c(F)nn(C)c4c3)s2)OC1 [Compound A36, (2S,7R)—N-[(1S)-1-cyano-2-[5-(3-fluoro-1-methylindazol-6-yl)-1,3-thiazol-2-yl]ethyl]-7-methoxy-1,4-oxazocane-2-carboxamide]	> 2.5 nM	> 15 nM	–	–
CO[C@@H]1CCNC[C@@H](C(=O)N[C@H](C#N)Cc2ncc(-c3ccc4c(n3)CCCN4)s2)OC1 [Compound A37, (2S,7R)—N—((S)-1-cyano-2-(5-(5,6,7,8-tetrahydro-1,5-naphthyridin-2-yl)thiazol-2-yl)ethyl)-7-methoxy-1,4-oxazocane-2-carboxamide]	> 2.5 nM	> 15 nM	–	–
CN1CCCc2ncc(-c3ccc(C[C@@H](C#N)NC(=O)[C@@H]4CNCCCO4)cc3)cc21 [Compound A40, (2S)—N-[(1S)-1-cyano-2-[4-(5-methyl-7,8-dihydro-6H-1,5-naphthyridin-3-yl)phenyl]ethyl]-1,4-oxazepane-2-carboxamide]	> 2.5 nM	> 15 nM	–	–
N#C[C@H](Cc1ccc(-c2ccc3c(c2)C2(CN(C4COC4)C2)OC3=O)cc1)NC(=O)[C@@H]1CNCCCO1 [Compound 27, (2S)—N-[(1S)-1-cyano-2-{4-[1-(oxetan-3-yl)-3′-oxospiro[azetidine-3,1′-[2]benzofuran]-6′-yl]phenyl}ethyl]-1,4-oxazepane-2-carboxamide]	> 2.5 nM	> 15 nM	–	–
CO[C@@H]1CCNC[C@@H](C(=O)N[C@H](C#N)Cc2cc3cc(-c4cc5c(C)nc(C)cn5c4)ccc3s2)OC1 (single isomer, unassigned) [Compound A51]	1 to 2.5 nM	5 to 15 nM	–	–
Cc1ncc(C)n2cc(-c3ccc(C[C@@H](C#N)NC(=O)[C@@H]4CNCCCO4)cc3)cc12 [Compound A63]	> 2.5 nM	> 15 nM	–	–
N#C[C@H](Cc1ccc(-c2ccc3c(c2)C2(CCN(c4nccs4)CC2)SC3)cc1)NC(=O)[C@@H]1CNCCCO1 [Compound I16]	> 2.5 nM	> 15 nM	–	–
CO[C@H]1CCO[C@H](C(=O)NC(C#N)Cc2cc3cc(-c4cc5c(C)nc(C)cn5c4)ccc3s2)CNC1 (single isomer, unassigned) [Compound A46]	> 2.5 nM	> 15 nM	–	–
N#Cc1ccc2c(c1)COc1c-2ccc(CC(C#N)NC(=O)[C@@H]2CNCCCO2)c1F (stereo partly drawn) [Compound B4, (2S)—N-(1-cyano-2-{8-cyano-4-fluoro-6H-benzo[c]chromen-3-yl}ethyl)-1,4-oxazepane-2-carboxamide]	–	–	> 2.5 nM	> 15 nM
CN1C(=O)C2(CCNCC2)c2cc(-c3ccc(C[C@@H](C#N)NC(=O)[C@@H]4CNCCCO4)cc3)ccc21 [Compound 23, (2S)—N-[(1S)-1-cyano-2-(4-{1-methyl-2-oxospiro[indole-3,4′-piperidin]-5-yl}phenyl)ethyl]-1,4-oxazepane-2-carboxamide]	> 2.5 nM	5 to 15 nM	–	–
CO[C@@H]1CCNC[C@@H](C(=O)NC(C#N)Cc2cnc(-c3ccc4c(n3)CCCN4)s2)OC1 (stereo partly drawn) [Compound A39, (2S,7R)—N-{1-cyano-2-[2-(5,6,7,8-tetrahydro-1,5-naphthyridin-2-yl)-1,3-thiazol-5-yl]ethyl}-7-methoxy-1,4-oxazocane-2-carboxamide]	> 2.5 nM	> 15 nM	–	–
COC1CNC[C@@H](C(=O)N[C@H](C#N)Cc2ccc(-c3ccc4c(c3)CCC(=O)N4C)cc2F)OC1 (stereo partly shown) [Compound A152]	< 1 nM	< 5 nM	–	–
N#C[C@H](Cc1ccc(-c2cnc3c(c2)NCCC3)cc1)NC(=O)[C@@H]1CNCCCO1 [Compound A41, (2S)—N-[(1S)-1-cyano-2-[4-(5,6,7,8-tetrahydro-1,5-naphthyridin-3-yl)phenyl]ethyl]-1,4-oxazepane-2-carboxamide]	> 2.5 nM	> 15 nM	–	–
COC1CNC[C@@H](C(=O)N[C@H](C#N)Cc2ccc(-c3ccc4c(c3)CCC(=O)N4C)cc2)OC1 (stereo partly shown) [Compound A146]	< 1 nM	< 5 nM	–	–
CO[C@H]1CCO[C@H](C(=O)N[C@H](C#N)Cc2ccc(-c3ccc4c(F)nn(C)c4c3)cc2F)CNC1 [Compound A165]	1 to 2.5 nM	5 to 15 nM	–	–
COC1CO[C@H](C(=O)N[C@H](C#N)Cc2ccc(-c3ccc4c(c3)C3(CC4)CCN(C)CC3)cc2F)CNC1C (stereo partly drawn) [Compound E6, (2S)—N-[(1S)-1-cyano-2-(2-fluoro-4-{1′-methyl-2,3-dihydrospiro[indene-1,4′-piperidin]-6-yl}phenyl)ethyl]-6-methoxy-5-methyl-1,4-oxazepane-2-carboxamide]	> 2.5 nM	< 5 nM	–	–
CO[C@H]1CCO[C@H](C(=O)N[C@H](C#N)Cc2ccc(-c3ccc4c(c3)CCC(=O)N4C)cc2F)CNC1 [Compound A153]	< 1 nM	< 5 nM	–	–
CO[C@H]1CCO[C@H](C(=O)NC(C#N)Cc2cc3c(cc2F)-c2cc(C4COC4)c(F)cc2CO3)CNC1 (mixture of isomers) [Compound B15, (2S,6S)—N-{1-cyano-2-[2,8-difluoro-9-(oxetan-3-yl)-6H-benzo[c]chromen-3-yl]ethyl}-6-methoxy-1,4-oxazocane-2-carboxamide]	1 to 2.5 nM	< 5 nM	–	–
CCc1sc(-c2ccc(C[C@@H](C#N)NC(=O)[C@@H]3CNCCCO3)cc2)nc1-c1cnn(C)c1 [Compound D8, (2S)—N-[(1S)-1-cyano-2-{4-[5-ethyl-4-(1-methylpyrazol-4-yl)-1,3-thiazol-2-yl]phenyl}ethyl]-1,4-oxazepane-2-carboxamide]	> 2.5 nM	> 15 nM	–	–
CN1CCC2(CC1)C(=O)Nc1ccc(-c3ccc(C[C@@H](C#N)NC(=O)[C@@H]4CNCCCO4)cc3)cc12 [Compound 13, (2S)—N-[(1S)-1-cyano-2-(4-{1′-methyl-2-oxo-1H-spiro[indole-3,4′-piperidin]-5-yl}phenyl)ethyl]-1,4-oxazepane-2-carboxamide]	> 2.5 nM	> 15 nM	–	–
CO[C@@H]1CCNC[C@@H](C(=O)N[C@H](C#N)Cc2ccc(-c3ccc4c(c3)CCC(=O)N4C)cc2F)OC1 [Compound A151]	1 to 2.5 nM	< 5 nM	–	–

Source: patent US20260008760A1, “DIPEPTIDYL PEPTIDASE 1 INHIBITORS AND USES THEREOF” (Insmed Incorporated, priority 2024, published 2026)
